Experimental data reported in US20260217735A1, “HETEROCYCLES AND USES THEREOF” (Kumquat Biosciences Inc., priority 2023, published 2026).

Legend:
KRAS G12D = target: T1, KRAS G12D (Homo sapiens, UniProt P01116, G12D); assay: HTRF assay, KRAS G12D interaction with SOS1; type: biochemical; details: bins <500 nM / 500 nM to 1000 nM, read-out: Inhibition of KRAS G12D (IC50)
T1 construct: made in house; host or cells: E. coli, e.g. BL21 (DE3)

KRAS G12V = target: T2, KRAS G12V (Homo sapiens, UniProt P01116, G12V); assay: HTRF assay, KRAS G12V interaction with SOS1; type: biochemical; details: bins <500 nM / 500 nM to 1000 nM, read-out: Inhibition of KRAS G12V (IC50)
T2 construct: made in house; host or cells: E. coli, e.g. BL21 (DE3)

MiaPaca2 cells = assay: Ras cellular assay, growth of cells with K-Ras G12C mutation; type: cell-based; details: Homo sapiens, MIA PaCa-2; cell proliferation assay; bins ≤500 nM / >500 nM; read-out: Inhibition of MiaPaca2 Cells (IC50)
Summary of the method: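 MIA PaCa-2 cells (K-Ras G12C, about 125-150 cells/well) grown in 0.25% soft agar over a 0.6% agar base, compound added on day 2 at 0.3% final DMSO. Growth read on day 10 by Cell Titer 96 AQueous absorbance (490 nm, reference 660 nm) against time-zero wells; IC50 from four-parameter fit.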

KRAS G12S = target: T3, KRAS G12S (Homo sapiens, UniProt P01116, G12S); assay: HTRF assay, KRAS G12S interaction with SOS1; type: biochemical; details: bins <500 nM / 500 nM to 1000 nM, read-out: Inhibition of KRAS G12S (IC50)
T3 construct: made in house; host or cells: E. coli, e.g. BL21 (DE3)

KRAS WT = target: T4, KRAS WT (Homo sapiens, UniProt P01116); assay: HTRF assay, wildtype KRAS interaction with SOS1; type: biochemical; details: bins <500 nM / 500 nM to 1000 nM, read-out: Inhibition of KRAS WT (IC50)
T4 construct: made in house; host or cells: E. coli, e.g. BL21 (DE3)
T4 sequence (P01116 1-188 isoform P01116-2): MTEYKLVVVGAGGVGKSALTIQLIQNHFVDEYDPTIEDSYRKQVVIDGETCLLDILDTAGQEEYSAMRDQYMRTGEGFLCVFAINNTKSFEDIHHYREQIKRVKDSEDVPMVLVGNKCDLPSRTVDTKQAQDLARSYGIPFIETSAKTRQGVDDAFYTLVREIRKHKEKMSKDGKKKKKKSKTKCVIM

T2 sequence (P01116 1-188 isoform P01116-2 G12V): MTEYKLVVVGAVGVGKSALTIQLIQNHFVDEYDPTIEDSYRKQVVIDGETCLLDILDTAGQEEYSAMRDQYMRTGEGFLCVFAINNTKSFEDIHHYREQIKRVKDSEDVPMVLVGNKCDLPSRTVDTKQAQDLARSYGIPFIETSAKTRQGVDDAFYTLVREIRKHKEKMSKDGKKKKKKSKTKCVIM
T3 sequence (P01116 1-188 isoform P01116-2 G12S): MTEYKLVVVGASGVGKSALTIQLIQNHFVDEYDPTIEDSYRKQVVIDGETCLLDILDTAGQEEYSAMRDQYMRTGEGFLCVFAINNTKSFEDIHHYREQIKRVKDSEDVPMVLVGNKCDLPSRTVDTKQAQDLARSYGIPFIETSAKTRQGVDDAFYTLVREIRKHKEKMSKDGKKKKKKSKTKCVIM
T1 sequence (P01116 1-188 isoform P01116-2 G12D): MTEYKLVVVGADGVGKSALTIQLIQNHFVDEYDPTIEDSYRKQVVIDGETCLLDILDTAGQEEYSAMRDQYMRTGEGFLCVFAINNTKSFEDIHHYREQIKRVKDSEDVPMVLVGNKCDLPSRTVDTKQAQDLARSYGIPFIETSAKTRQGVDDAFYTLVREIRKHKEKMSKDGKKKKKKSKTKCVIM

| Compound | IC50 (KRAS G12D) [nM] | IC50 (KRAS G12V) [nM] | IC50 (MiaPaca2 cells) [nM] | IC50 (KRAS G12S) [nM] | IC50 (KRAS WT) [nM] |
| --- | --- | --- | --- | --- | --- |
| CCN(c1nc(OC[C@@]23CCCN2C[C@H](F)C3)nc2c(F)c(-c3ccc(F)c4sc(N)c(C#N)c34)c(C(F)(F)F)cc12)[C@@H]1CCN(C(=O)n2cnc(C#N)c2C)[C@@H]1C [Compound 139, 1-((2R,3R)-3-((7-(2-amino-3-cyano-7-fluorobenzo[b]thiophen-4-yl)-8-fluoro-2-(((2R,7aS)-2-fluorotetrahydro-1H-pyrrolizin-7a(5H)-yl)methoxy)-6-(trifluoromethyl)quinazolin-4-yl)(ethyl)amino)-2-methylpyrrolidine-1-carbonyl)-5-methyl-1H-imidazole-4-carbonitrile] | < 500 | < 500 | ≤ 500 | < 500 | < 500 |
| C[C@@H]1[C@H](N(C)c2nc(OC[C@@]34CCCN3C[C@H](F)C4)nc3c(F)c(-c4ccc(F)c5sc(N)c(C#N)c45)c(Cl)cc23)CCN1C(=O)n1cccn1 [Compound 172, 2-amino-4-(6-chloro-8-fluoro-2-(((2R,7aS)-2-fluorotetrahydro-1H-pyrrolizin-7a(5H)-yl)methoxy)-4-(methyl((2R,3R)-2-methyl-1-(1H-pyrazole-1-carbonyl)pyrrolidin-3-yl)amino)quinazolin-7-yl)-7-fluorobenzo[b]thiophene-3-carbonitrile] | < 500 | < 500 | ≤ 500 | < 500 | < 500 |
| CCN(c1nc(OC[C@@]23CCCN2C[C@H](F)C3)nc2c(F)c(-c3ccc(F)c4sc(N)c(C#N)c34)c(Cl)cc12)[C@@H]1CCN(C(=O)n2cnc(C)c2)[C@@H]1C [Compound 108, 2-amino-4-(6-chloro-4-(ethyl((2R,3R)-2-methyl-1-(4-methyl-1H-imidazole-1-carbonyl)pyrrolidin-3-yl)amino)-8-fluoro-2-(((2R,7aS)-2-fluorotetrahydro-1H-pyrrolizin-7a(5H)-yl)methoxy)quinazolin-7-yl)-7-fluorobenzo[b]thiophene-3-carbonitrile] | < 500 | < 500 | ≤ 500 | < 500 | < 500 |
| CCN(c1nc(OC[C@@]23CCCN2C[C@H](F)C3)nc2c(F)c(-c3ccc(F)c4sc(N)c(C#N)c34)c(C(F)(F)F)cc12)[C@@H]1CCN(C(=O)n2cnc(C)c2C)[C@@H]1C [Compound 110, 2-amino-4-(4-(((2R,3R)-1-(4,5-dimethyl-1H-imidazole-1-carbonyl)-2-methylpyrrolidin-3-yl)(ethyl)amino)-8-fluoro-2-(((2R,7aS)-2-fluorotetrahydro-1H-pyrrolizin-7a(5H)-yl)methoxy)-6-(trifluoromethyl)quinazolin-7-yl)-7-fluorobenzo[b]thiophene-3-carbonitrile] | < 500 | < 500 | ≤ 500 | < 500 | < 500 |
| CCN(c1nc(OC[C@@]23CCCN2C[C@H](F)C3)nc2c(F)c(-c3ccc(F)c4sc(N)c(C#N)c34)c(C(F)(F)F)cc12)[C@@H]1CCN(C(=O)n2cc(C)nc2Cl)[C@@H]1C [Compound 162, 2-amino-4-(4-(((2R,3R)-1-(2-chloro-4-methyl-1H-imidazole-1-carbonyl)-2-methylpyrrolidin-3-yl)(ethyl)amino)-8-fluoro-2-(((2R,7aS)-2-fluorotetrahydro-1H-pyrrolizin-7a(5H)-yl)methoxy)-6-(trifluoromethyl)quinazolin-7-yl)-7-fluorobenzo[b]thiophene-3-carbonitrile] | < 500 | < 500 | ≤ 500 | < 500 | < 500 |
| C[C@@H]1[C@H](N(C)c2nc(OC[C@@]34CCCN3C[C@H](F)C4)nc3c(F)c(-c4ccc(F)c5sc(N)c(C#N)c45)c(Cl)cc23)CCN1C(=O)n1cnc(C#N)c1 [Compound 199, 1-((2R,3R)-3-((7-(2-amino-3-cyano-7-fluorobenzo[b]thiophen-4-yl)-6-chloro-8-fluoro-2-(((2R,7aS)-2-fluorotetrahydro-1H-pyrrolizin-7a(5H)-yl)methoxy)quinazolin-4-yl)(methyl)amino)-2-methylpyrrolidine-1-carbonyl)-1H-imidazole-4-carbonitrile] | < 500 | < 500 | ≤ 500 | < 500 | < 500 |
| C[C@@H]1[C@H](N(C)c2nc(OC[C@@]34CCCN3C[C@H](F)C4)nc3c(F)c(-c4ccc(F)c5sc(N)c(C#N)c45)c(Cl)cc23)CCN1C(=O)n1ccc(C#N)n1 [Compound 126, 1-((2R,3R)-3-((7-(2-amino-3-cyano-7-fluorobenzo[b]thiophen-4-yl)-6-chloro-8-fluoro-2-(((2R,7aS)-2-fluorotetrahydro-1H-pyrrolizin-7a(5H)-yl)methoxy)quinazolin-4-yl)(methyl)amino)-2-methylpyrrolidine-1-carbonyl)-1H-pyrazole-3-carbonitrile] | < 500 | < 500 | ≤ 500 | < 500 | < 500 |
| Cc1c(C#N)ncn1C(=O)N1CC[C@@H](N(C)c2nc(OC[C@@]34CCCN3C[C@H](F)C4)nc3c(F)c(-c4ccc(F)c5sc(N)c(C#N)c45)c(Cl)cc23)[C@H]1C [Compound 141, 1-((2R,3R)-3-((7-(2-amino-3-cyano-7-fluorobenzo[b]thiophen-4-yl)-6-chloro-8-fluoro-2-(((2R,7aS)-2-fluorotetrahydro-1H-pyrrolizin-7a(5H)-yl)methoxy)quinazolin-4-yl)(methyl)amino)-2-methylpyrrolidine-1-carbonyl)-5-methyl-1H-imidazole-4-carbonitrile] | < 500 | < 500 | ≤ 500 | < 500 | < 500 |
| C[C@@H]1[C@H](N(C)c2nc(OC[C@@]34CCCN3C[C@H](F)C4)nc3c(F)c(-c4ccc(F)c5sc(N)c(C#N)c45)c(Cl)cc23)CCN1C(=O)n1cnc(CC#N)c1 [Compound 183, 2-amino-4-(6-chloro-4-(((2R,3R)-1-(4-(cyanomethyl)-1H-imidazole-1-carbonyl)-2-methylpyrrolidin-3-yl)(methyl)amino)-8-fluoro-2-(((2R,7aS)-2-fluorotetrahydro-1H-pyrrolizin-7a(5H)-yl)methoxy)quinazolin-7-yl)-7-fluorobenzo[b]thiophene-3-carbonitrile] | < 500 | < 500 | ≤ 500 | < 500 | < 500 |
| Cc1cn(C(=O)N(C)C2CN(c3nc(OC[C@@]45CCCN4C[C@H](F)C5)nc4c(F)c(-c5ccc(F)c6sc(N)c(C#N)c56)c(Cl)cc34)CC2F)cn1 (stereo partly drawn) [Compound 151, N-(1-((R)-7-(2-amino-3-cyano-7-fluorobenzo[b]thiophen-4-yl)-6-chloro-8-fluoro-2-(((2R,7aS)-2-fluorotetrahydro-1H-pyrrolizin-7a(5H)-yl)methoxy)quinazolin-4-yl)-4-fluoropyrrolidin-3-yl)-N,4-dimethyl-1H-imidazole-1-carboxamide] | < 500 | < 500 | ≤ 500 | < 500 | < 500 |
| CN(c1nc(OC[C@@]23CCCN2C[C@H](F)C3)nc2c(F)c(-c3ccc(F)c4sc(N)c(C#N)c34)c(Cl)cc12)[C@@H]1CCN(C(=O)n2cncn2)C1 [Compound 181, 4-(4-(((R)-1-(1H-1,2,4-triazole-1-carbonyl)pyrrolidin-3-yl)(methyl)amino)-6-chloro-8-fluoro-2-(((2R,7aS)-2-fluorotetrahydro-1H-pyrrolizin-7a(5H)-yl)methoxy)quinazolin-7-yl)-2-amino-7-fluorobenzo[b]thiophene-3-carbonitrile] | < 500 | < 500 | ≤ 500 | < 500 | < 500 |
| C[C@@H]1[C@H](N(C)c2nc(OC[C@@]34CCCN3C[C@H](F)C4)nc3c(F)c(-c4ccc(F)c5sc(N)c(C#N)c45)c(Cl)cc23)CCN1C(=O)n1cc(C#N)cn1 [Compound 220, 1-((2R,3R)-3-((7-(2-amino-3-cyano-7-fluorobenzo[b]thiophen-4-yl)-6-chloro-8-fluoro-2-(((2R,7aS)-2-fluorotetrahydro-1H-pyrrolizin-7a(5H)-yl)methoxy)quinazolin-4-yl)(methyl)amino)-2-methylpyrrolidine-1-carbonyl)-1H-pyrazole-4-carbonitrile] | < 500 | < 500 | ≤ 500 | < 500 | < 500 |
| CCN(c1nc(OC[C@@]23CCCN2C[C@H](F)C3)nc2c(F)c(-c3cc(N)c(F)c(C)c3C(F)(F)F)ncc12)[C@@H]1CCN(C(=O)n2cc(C)nc2C)[C@@H]1C [Compound 196, ((2R,3R)-3-((7-(5-amino-4-fluoro-3-methyl-2-(trifluoromethyl)phenyl)-8-fluoro-2-(((2R,7aS)-2-fluorotetrahydro-1H-pyrrolizin-7a(5H)-yl)methoxy)pyrido[4,3-d]pyrimidin-4-yl)(ethyl)amino)-2-methylpyrrolidin-1-yl)(2,4-dimethyl-1H-imidazol-1-yl)methanone] | 500 to 1000 | < 500 | ≤ 500 | < 500 | < 500 |
